{"source": "patent US4873225A", "about": "“1-n-(4-amino-3-fluoro-2-hydroxybutyryl)-kanamycins” (Zaidan Hojin Biseibutsu Kagaku Kenkyu Kai, priority 1987, dated 1989)", "key": {"[1]": {"tested_on": "gram-positive bacteria, gram-negative bacteria and various kanamycin-resistant strains of bacteria", "assay": "Antibacterial activity in vitro, in words", "assay_type": "cell-based", "conditions": "tested in vitro", "procedure": "The present inventors have carried out an extensive investigation in an attempt to produce such novel kanamycin derivatives which are capable of fulfilling such demands. […] The present invention has been completed on the basis of these above findings.\n(§1) Antibacterial activities of each of the abovementioned compounds of the general formula (I) according to this invention were determined by measuring their minimum growth inhibitory concentrations (MIC, mcg/ml) against various bacteria in accordance with a standard serial dilution method. The pH condition of the incubation medium where the MIC data were measured was set at pH 7, unless otherwise specifically indicated. For the sake of comparison, the antibacterial spectra of 1-N-{(S)-4-amino-2-hydroxybutyryl}kanamycin A (i.e., amikacin) and 1-N-{(S)-4-amino-2-hydroxybutyryl}-3,4-dideoxykanamycin B (i.e., habekacin) were also measured in the same manner."}, "[2]": {"tested_on": "Staphylococcus aureus Ap 01", "conditions": "reported in earlier applications; cited from earlier work"}, "[3]": {"tested_on": "Staphylococcus epidermidis 109", "conditions": "reported in earlier applications; cited from earlier work"}, "Bacillus subtilis PCI219": {"tested_on": "Bacillus subtilis PCI219", "assay": "MIC, standard serial dilution method", "assay_type": "cell-based", "conditions": "PCI219, pH 7, read-out: MIC", "procedure": "as §1"}, "[4]": {"tested_on": "Corynebacterium bovis 1810", "assay": "MIC, standard serial dilution method", "assay_type": "cell-based", "conditions": "Corynebacterium bovis, 1810, pH 7; read-out: MIC", "procedure": "as §1"}, "Escherichia coli JR 225": {"tested_on": "Escherichia coli JR 225", "assay": "MIC, standard serial dilution method", "assay_type": "cell-based", "conditions": "JR225, pH 7", "procedure": "as §1"}, "[5]": {"tested_on": "Escherichia coli K-12 LA 290 R55", "assay": "MIC, standard serial dilution method", "assay_type": "cell-based", "conditions": "K12LA290R55, pH 7", "procedure": "as §1"}, "[6]": {"tested_on": "Escherichia coli K-12 ML 1629", "assay": "MIC, standard serial dilution method", "assay_type": "cell-based", "conditions": "K12ML1629, pH 7, read-out: MIC", "procedure": "as §1"}, "Escherichia coli K-12": {"tested_on": "Escherichia coli K-12", "assay": "MIC, standard serial dilution method", "assay_type": "cell-based", "conditions": "K12, pH 7", "procedure": "as §1"}, "[7]": {"tested_on": "Klebsiella pneumoniae 22 #3038", "assay": "MIC, standard serial dilution method", "assay_type": "cell-based", "conditions": "pH 7, read-out: MIC", "procedure": "as §1"}, "Mycobacterium 607": {"tested_on": "Mycobacterium 607", "assay": "MIC, standard serial dilution method", "assay_type": "cell-based", "conditions": "Mycobacterium, 607, pH 7; read-out: MIC", "procedure": "as §1"}, "Proteus rettgeri GN 311": {"tested_on": "Proteus rettgeri GN 311", "assay": "MIC, standard serial dilution method", "assay_type": "cell-based", "conditions": "Providencia rettgeri, GN311, pH 7; read-out: MIC", "procedure": "as §1"}, "Providencia sp. Pv 16": {"tested_on": "Providencia sp. Pv 16", "assay": "MIC, standard serial dilution method", "assay_type": "cell-based", "conditions": "SP.PV16, pH 7, read-out: MIC", "procedure": "as §1"}, "[8]": {"tested_on": "Pseudomonas aeruginosa A3", "assay": "MIC, standard serial dilution method", "assay_type": "cell-based", "conditions": "A3, pH 7, read-out: MIC", "procedure": "as §1"}, "[9]": {"tested_on": "Pseudomonas aeruginosa GN 315", "assay": "MIC, standard serial dilution method", "assay_type": "cell-based", "conditions": "GN315, pH 7", "procedure": "as §1"}, "Serratia marcescens": {"tested_on": "Serratia marcescens", "assay": "MIC, standard serial dilution method", "assay_type": "cell-based", "conditions": "pH 7, read-out: MIC", "procedure": "as §1"}, "[10]": {"tested_on": "Staphylococcus aureus 209P", "assay": "MIC, standard serial dilution method", "assay_type": "cell-based", "conditions": "pH 7, read-out: MIC", "procedure": "as §1"}, "[11]": {"tested_on": "Staphylococcus aureus Ap01", "assay": "MIC, standard serial dilution method", "assay_type": "cell-based", "conditions": "AP01, pH 7, read-out: MIC", "procedure": "as §1"}, "Escherichia coli K-12 R5": {"tested_on": "Escherichia coli K-12 R5", "assay": "MIC, standard serial dilution method", "assay_type": "cell-based", "conditions": "K12R5, pH 7", "procedure": "as §1\nInfectious diseases by Escherichia coli K-12 R5 tend to increase in recent days. The compounds of this invention are therefore important for the therapeutic treatment of bacterial infections."}, "[12]": {"tested_on": "Escherichia coli JR66/W677", "assay": "MIC, standard serial dilution method", "assay_type": "cell-based", "conditions": "Escherichia coli, read-out: MIC", "procedure": "as §1\n(§2) (a) The antibacterial activities of the compounds of this invention are not decreased practically even under pH conditions of pH […] as compared to their antibacterial activities under neutral conditions of pH 7."}, "[13]": {"tested_on": "Pseudomonas aeruginosa TI 13", "assay": "MIC, standard serial dilution method", "assay_type": "cell-based", "conditions": "Pseudomonas aeruginosa, read-out: MIC", "procedure": "as §1, §2"}, "mice": {"tested_on": "mice", "assay": "Acute toxicity against mice", "assay_type": "in vivo", "conditions": "orally administered, 150 mg/kg"}}, "note": "Like-named read-outs stand apart in the source and are kept apart here."}
{"smiles": "NC[C@H](F)[C@H](O)C(=O)N[C@@H]1C[C@H](N)[C@@H](O[C@H]2O[C@H](CN)[C@@H](O)[C@H](O)[C@H]2N)[C@H](O)[C@H]1O[C@H]1O[C@H](CO)[C@@H](O)[C@H](N)[C@H]1O", "note": "[1-N-{(2R,3S)-4-amino-3-fluoro-2-hydroxybutyryl}kanamycin B]", "values": [{"measurement": "enhancement in antibacterial activities", "setting": "[1]", "result": "did not show any enhancement in antibacterial activities"}]}
{"smiles": "NC[C@@H]1C[C@H](F)[C@@H](N)[C@@H](O[C@H]2[C@H](O)[C@@H](O[C@H]3O[C@H](CO)[C@@H](O)[C@H](N)[C@H]3O)[C@H](N)C[C@@H]2N)O1", "note": "[3',4'-dideoxy-3'-fluorokanamycin B]", "values": [{"measurement": "effective against resistant strain", "setting": "[2]", "result": "effective against such certain resistant strains of bacteria"}, {"measurement": "effective against resistant strain", "setting": "[3]", "result": "effective against such certain resistant strains of bacteria"}]}
{"smiles": "NC[C@@H](F)[C@H](O)C(=O)N[C@@H]1C[C@H](N)[C@@H](O[C@@H]2CC[C@H](O)[C@@H](CN)O2)[C@H](O)[C@H]1O[C@H]1O[C@H](CO)[C@@H](O)[C@H](N)[C@H]1O", "note": "[Invention Compound No. 2, 1-N-{(2R,3R)-4-Amino-3-fluoro-2-hydroxybutyryl}-2',3'-dideoxykanamycin A]", "values": [{"measurement": "MIC", "setting": "Bacillus subtilis PCI219", "result": 0.78, "unit": "µg/mL"}, {"measurement": "MIC", "setting": "[4]", "result": 0.78, "unit": "µg/mL"}, {"measurement": "MIC", "setting": "Escherichia coli JR 225", "result": 0.39, "unit": "µg/mL"}, {"measurement": "MIC", "setting": "[5]", "result": 0.78, "unit": "µg/mL"}, {"measurement": "MIC", "setting": "[6]", "result": 0.78, "unit": "µg/mL"}, {"measurement": "MIC", "setting": "Escherichia coli K-12", "result": 0.39, "unit": "µg/mL"}, {"measurement": "MIC", "setting": "[7]", "result": 3.12, "unit": "µg/mL"}, {"measurement": "MIC", "setting": "Mycobacterium 607", "result": 1.56, "unit": "µg/mL"}, {"measurement": "MIC", "setting": "Proteus rettgeri GN 311", "result": 0.78, "unit": "µg/mL"}, {"measurement": "MIC", "setting": "Providencia sp. Pv 16", "result": 1.56, "unit": "µg/mL"}, {"measurement": "MIC", "setting": "[8]", "result": 0.78, "unit": "µg/mL"}, {"measurement": "MIC", "setting": "[9]", "result": 12.5, "unit": "µg/mL"}, {"measurement": "MIC", "setting": "Serratia marcescens", "result": 3.12, "unit": "µg/mL"}, {"measurement": "MIC", "setting": "[10]", "result": 0.2, "unit": "µg/mL"}, {"measurement": "MIC", "setting": "[11]", "result": 1.56, "unit": "µg/mL"}, {"measurement": "MIC", "setting": "Escherichia coli K-12 R5", "result": 6.25, "unit": "µg/mL"}, {"measurement": "MIC", "setting": "[12]; JR66/W677, pH 7", "result": 1.56, "unit": "µg/mL"}, {"measurement": "MIC", "setting": "[12]; JR66/W677, measured at pH 6", "result": 6.25, "unit": "µg/mL"}, {"measurement": "MIC", "setting": "[13]; TI13, pH 7", "result": 3.12, "unit": "µg/mL"}, {"measurement": "MIC", "setting": "[13]; TI13, measured at pH 6", "result": 3.12, "unit": "µg/mL"}, {"measurement": "survival of mice", "setting": "mice", "result": "all mice surrived"}]}
